Laboratory results as given in the NIST ThermoML archive (doi:10.1016/j.jct.2006.06.001).

Key:
[1] = xn = mol fraction of the nth substance listed; settings: 81.5 kPa, Liquid
[2] = 81.5 kPa, Liquid

COCCO [2-methoxyethan-1-ol] + CC(O)CO
mass density [kg/m3], [1]
Settings	293.15 K	303.15 K	313.15 K	323.15 K	333.15 K	343.15 K
x1 = 0.0745	1030.87	1023.34	1015.67	1007.87	999.89	991.75
x1 = 0.1669	1024.12	1016.42	1008.59	1000.6	992.48	984.19
x1 = 0.2365	1019.06	1011.22	1003.26	995.17	986.94	978.54
x1 = 0.3194	1013.05	1005.07	996.96	988.73	980.35	971.81
x1 = 0.3946	1007.6	999.48	991.25	982.88	974.38	965.73
x1 = 0.4791	1001.49	993.22	984.85	976.34	967.7	958.9
x1 = 0.5625	995.51	987.1	978.58	969.93	961.14	952.2
x1 = 0.6331	990.47	981.94	973.3	964.53	955.63	946.55
x1 = 0.7266	983.82	975.12	966.32	957.38	948.31	939.08
x1 = 0.8081	978.11	969.27	960.32	951.24	942.02	932.64
x1 = 0.8752	973.43	964.47	955.4	946.21	936.87	927.36
x1 = 0.9658	967.23	958.12	948.88	939.52	930.01	920.33

COCCO [2-methoxyethan-1-ol] + CCCO
mass density [kg/m3], [1]
Settings	293.15 K	303.15 K	313.15 K	323.15 K	333.15 K	343.15 K
x1 = 0.0845	817.73	809.55	801.23	792.73	783.99	774.97
x1 = 0.1559	829.58	821.29	812.86	804.25	795.42	786.31
x1 = 0.2391	843.36	834.94	826.39	817.66	808.72	799.51
x1 = 0.3146	855.77	847.26	838.61	829.78	820.75	811.47
x1 = 0.4015	869.91	861.29	852.53	843.61	834.47	825.11
x1 = 0.479	882.45	873.74	864.89	855.88	846.68	837.25
x1 = 0.5597	895.42	886.62	877.69	868.6	859.32	849.83
x1 = 0.6365	907.69	898.82	889.81	880.65	871.31	861.76
x1 = 0.7183	920.73	911.78	902.7	893.47	884.08	874.48
x1 = 0.7939	932.73	923.71	914.56	905.28	895.83	886.17
x1 = 0.8775	945.88	936.8	927.59	918.24	908.74	899.05
x1 = 0.9553	957.99	948.84	939.57	930.18	920.63	910.9

CCCO [propan-1-ol]
[2]
Settings	mass density [kg/m3]
293.15 K	803.61
303.15 K	795.57
313.15 K	787.39
323.15 K	779.02
333.15 K	770.42
343.15 K	761.51

CC(C)O [propan-2-ol]
[2]
Settings	mass density [kg/m3]
293.15 K	785.1
303.15 K	776.63
313.15 K	767.85
323.15 K	758.68
333.15 K	749.06
343.15 K	738.91
